Experimental data from patent publication US20240261422A1, “ANTHRACYCLINE ANTIBODY CONJUGATES” (SEAGEN INC., priority 2021, published 2024).
Like-named read-outs stand apart in the source and are kept apart here.

Assays:
[1] = system: BxPC3, PancCa; assay: In vitro growth inhibition (CellTiter-Glo, 96 h), BxPC3; assay type: cell-based; details: for IC50: anthracycline free drugs, 96 h, read-out: IC50 (nM) BxPC3, PancCa; for IC50 (ng/mL) BxPC3, PancCa: cOKT9 ADCs, average DAR 8, 96 h
Method: (§1) Cell culture of cell lines as listed in Table 2-4 in log-phase growth were seeded in 96-well plates and grown for 24 h in cell culture media containing 150 μL RPMI 1640 supplemented with 20% FBS (see Mol. Cancer Ther., 2016, 15(5), 938-945 and Mol. Cancer Ther., 2018, 17(8), 1752-1760). Serial dilutions of free drugs or antibody-drug conjugates (final concentration between 0.004 nM and 1 μM) in cell culture media were prepared at 4× working concentrations; 50 μL of each dilution was added to the 96-well plates. Following addition of the drug or ADC, the cells were incubated with test articles (free drugs or ADCs) for 4 d at 37° C. After 96 h, growth inhibition was assessed by CellTiter-Glo® (Promega, Madison, WI) and luminescence was measured on a plate reader (brand, model).
(§2) Cells were treated for 96 hours with anthracycline analogues listed in Table 2, and then assessed for viability as described in the procedures as described above. […] ND denotes value not determined with that assay for the specified compound.
(§3) ADCs were prepared by full reduction of interchain disulfides to reveal 8-conjugatable cysteines/antibody, and subsequent alkylation with the maleimide-containing drug-linkers (Compounds 14, 18, 21, 24, 29, 32, 33, 34, and 48) according to the procedures described in Mol. Cancer Ther. 2018, 17(8). 1752-1760. Conjugates of antibody cOKT9 were prepared with anthracycline linkers. Cancer cell lines were treated with cOKT9 ADCs (average DAR of 8:1) for 96 h and then assessed for viability. […] ND denotes value not determined with that assay for the specified compound.

[2] = system: 786-O, MDR + RCC; assay: In vitro growth inhibition (CellTiter-Glo, 96 h), 786-O; assay type: cell-based; details: for IC50: 96 h; for IC50 (ng/mL) 786-O, MDR + RCC: cOKT9 ADCs, average DAR 8, 96 h
Method: as §1, §2, §3

[3] = system: L540cy, HL; assay: In vitro growth inhibition (CellTiter-Glo, 96 h), L540cy; assay type: cell-based; details: for IC50: anthracycline free drugs, 96 h, read-out: IC50 (nM) L540cy, HL
Method: as §1, §2, §3
(§4) Anti-CD30 ADCs comprising cAC10 antibody conjugated to drug-linkers 24, 32, 29, 18, 14, and 48 with an average DAR of 4 were prepared for evaluation on a CD30-expressing lymphoma cell line panel. […] Anti-CD30 conjugates bearing the PNU linkers 24, 32, 29, 18, and 14 were active on L540cy, DEL, and Karpas299 lymphoma cell lines, and conjugate 48 was active on L540cy and DEL cell lines, with IC50s ranging from 0.2-4 ng/mL.

[4] = system: L540cy, 786-O, BxPC3, HL60, HL60/RV; details: for change of potency relative to the parent compound: comparison in words; for IC50s of cOKT9 conjugates: 24 h
[5] = system: HL60/RV, MDR + AML; assay: In vitro growth inhibition (CellTiter-Glo, 96 h), HL60/RV; assay type: cell-based; details: for IC50: read-out: IC50 (nM) HL60/RV, MDR + AML; for IC50 (ng/mL) HL60/RV, MDR + AML: cOKT9 ADCs, average DAR 8, 96 h
Method: as §1, §2, §3

[6] = system: HL60, AML; assay: In vitro growth inhibition (CellTiter-Glo, 96 h), HL60; assay type: cell-based; details: for IC50: read-out: IC50 (nM) HL60, AML; for IC50 (ng/mL) HL60, AML: cOKT9 ADCs, average DAR 8, 96 h
Method: as §1, §2, §3

[7] = system: Ramos, CD30 − NHL; assay: In vitro growth inhibition (CellTiter-Glo, 96 h), Ramos; assay type: cell-based; details: cAC10 (anti-CD30) ADCs, average DAR 4
Method: as §1, §4

[8] = system: DEL, ALCL; assay: In vitro growth inhibition (CellTiter-Glo, 96 h), DEL; assay type: cell-based; details: cAC10 (anti-CD30) ADCs, average DAR 4
Method: as §1, §4

[9] = system: Karpas299, ALCL; assay: In vitro growth inhibition (CellTiter-Glo, 96 h), Karpas299; assay type: cell-based; details: cAC10 (anti-CD30) ADCs, average DAR 4
Method: as §1, §4

[10] = system: L428, MDR + HL; assay: In vitro growth inhibition (CellTiter-Glo, 96 h), L428; assay type: cell-based; details: cAC10 (anti-CD30) ADCs, average DAR 4
Method: as §1, §4

[11] = Homo sapiens, 786-0, anthracycline free drugs, read-out: IC50 (nM) 786-O, MDR + RCC
[12] = cOKT9 ADCs, average DAR 8, 96 h
[13] = cOKT9 ADCs DAR 8, result in words
[14] = cAC10 (anti-CD30) ADCs, average DAR 4

## COc1cccc2c1C(=O)c1c(O)c3c(c(O)c1C2=O)C[C@@](O)(C(=O)O)C[C@@H]3O[C@H]1C[C@H](N2CCO[C@H](OC)C2)[C@H](O)[C@H](C)O1 [Compound 4, (2S,4S)-2,5,12-trihydroxy-4-(((2R,4S,5S,6S)-5-hydroxy-4-((S)-2-methoxymorpholino)-6-methyltetrahydro-2H-pyran-2-yl)oxy)-7-methoxy-6,11-dioxo-1,2,3,4,6,11-hexahydrotetracene-2-carboxylic acid]
[1]; Homo sapiens, BXPC-3
  IC50: 10 to 100 nM
[2]; [11]
  IC50: 10 to 100 nM
[3]; L540cy
  IC50: 10 to 100 nM
[4]; free drugs
  change of potency relative to the parent compound: lost roughly one order of magnitude in potency

## COc1cccc2c1C(=O)c1c(O)c3c(c(O)c1C2=O)C[C@@](O)(C(=O)CO)C[C@@H]3O[C@H]1C[C@H]2[C@H](O[C@@H]3[C@@H](OC)OCCN32)[C@H](C)O1 [Compound 5, PNU-159682, reference compound]
[1]
  IC50: < 10 nM
[2]; anthracycline free drugs, read-out: IC50 (nM) 786-O, MDR + RCC
  IC50: < 10 nM
[2]; free drug, read-out: IC50 value, 786-0
  IC50: < 0.004 nM
[5]; anthracycline free drugs, 96 h
  IC50: < 10 nM
[6]; anthracycline free drugs, 96 h
  IC50: < 10 nM
[3]
  IC50: < 10 nM
[4]; read-out: IC50 values on the cancer lines tested, free drugs, 96 h, value or range over the cell lines tested
  IC50: ~0.01 nM

## COc1cccc2c1C(=O)c1c(O)c3c(c(O)c1C2=O)C[C@@](O)(C(=O)NCCN)C[C@@H]3O[C@H]1C[C@H]2[C@H](O[C@@H]3[C@@H](OC)OCCN32)[C@H](C)O1 [Compound 9, (2S,4S)—N-(2-aminoethyl)-2,5,12-trihydroxy-7-methoxy-4-(((1S,3R,4aS,9S,9aR,10aS)-9-methoxy-1-methyloctahydro-1H-pyrano[4′,3′:4,5]oxazolo[2,3-c][1,4]oxazin-3-yl)oxy)-6,11-dioxo-1,2,3,4,6,11-hexahydrotetracene-2-carboxamide]
[1]; Homo sapiens, BXPC-3
  IC50: < 10 nM
[2]; [11]
  IC50: < 10 nM
[5]; Homo sapiens, HL-60, 96 h
  IC50: 100 to 1000 nM
[6]; Homo sapiens, HL-60, 96 h
  IC50: < 10 nM
[3]; L540cy
  IC50: < 10 nM
[4]; free drugs
  change of potency relative to the parent compound: increased potency in 4 of 5 cell lines

## COc1cccc2c1C(=O)c1c(O)c3c(c(O)c1C2=O)C[C@@](O)(C(=O)NCCOCCOCCOCCOCCNC(=O)CCN1C(=O)C=CC1=O)C[C@@H]3O[C@H]1C[C@H]2[C@H](O[C@@H]3[C@@H](OC)OCCN32)[C@H](C)O1 [Compound 21, (2S,4S)—N-(18-(2,5-dioxo-2,5-dihydro-1H-pyrrol-1-yl)-16-oxo-3,6,9,12-tetraoxa-15-azaoctadecyl)-2,5,12-trihydroxy-7-methoxy-4-(((1S,3R,4aS,9S,9aR,10aS)-9-methoxy-1-methyloctahydro-1H-pyrano[4′,3′:4,5]oxazolo[2,3-c][1,4]oxazin-3-yl)oxy)-6,11-dioxo-1,2,3,4,6,11-hexahydrotetracene-2-carboxamide]
[1]
  IC50 (ng/mL) BxPC3, PancCa: A (IC50<10 ng/mL)
[2]
  IC50 (ng/mL) 786-O, MDR + RCC: A (IC50<10 ng/mL)
[5]
  IC50 (ng/mL) HL60/RV, MDR + AML: D (IC50≥1000 ng/mL)
[6]
  IC50 (ng/mL) HL60, AML: C (100 ng/mL≤IC50<1000 ng/mL)
[3]; [12]
  IC50 (ng/mL) L540cy, HL: A (IC50<10 ng/mL)
[4]
  IC50s of cOKT9 conjugates: 1 to 150 ng/mL

## COc1cccc2c1C(=O)c1c(O)c3c(c(O)c1C2=O)C[C@@](O)(C(=O)NCCNC(=O)OCc1ccc(NC(=O)[C@H](C)NC(=O)[C@@H](NC(=O)CCN2C(=O)C=CC2=O)C(C)C)cc1)C[C@@H]3O[C@H]1C[C@H]2[C@H](O[C@@H]3[C@@H](OC)OCCN32)[C@H](C)O1 [Compound 24, 4-((S)-2-((S)-2-(3-(2,5-dioxo-2,5-dihydro-1H-pyrrol-1-yl)propanamido)-3-methylbutanamido)propanamido)benzyl (2-((2S,4S)-2,5,12-trihydroxy-7-methoxy-4-(((1S,3R,4aS,9S,9aR,10aS)-9-methoxy-1-methyloctahydro-1H-pyrano[4′,3′:4,5]oxazolo[2,3-c][1,4]oxazin-3-yl)oxy)-6,11-dioxo-1,2,3,4,6,11-hexahydrotetracene-2-carboxamido)ethyl)carbamate]
[1]
  IC50 (ng/mL) BxPC3, PancCa: A (IC50<10 ng/mL)
[7]
  IC50 (ng/mL) Ramos, CD30 − NHL: D (100 ng/mL≤IC50<500 ng/mL)
[8]
  IC50 (ng/mL) DEL, ALCL: A (IC50<1 ng/mL)
[2]
  IC50 (ng/mL) 786-O, MDR + RCC: B (10 ng/mL≤IC50<100 ng/mL)
[9]
  IC50 (ng/mL) Karpas299, ALCL: B (1 ng/mL≤IC50<10 ng/mL)
[5]; [13]
  activity of cOKT9 conjugates on multidrug resistant HL60/RV: active
[5]
  IC50 (ng/mL) HL60/RV, MDR + AML: B (10 ng/mL≤IC50<100 ng/mL)
[6]
  IC50 (ng/mL) HL60, AML: B (10 ng/mL≤IC50<100 ng/mL)
[10]
  IC50 (ng/mL) L428, MDR + HL: E (IC50≥500 ng/mL)
[3]; [14]
  IC50 (ng/mL) L540cy, HL: B (1 ng/mL≤IC50<10 ng/mL)
[3]; [12]
  IC50 (ng/mL) L540cy, HL: A (IC50<10 ng/mL)
[4]
  IC50s of cOKT9 conjugates: 1 to 150 ng/mL

## COc1cccc2c1C(=O)c1c(O)c3c(c(O)c1C2=O)C[C@@](O)(C(=O)NCCNC(=O)CCN1C(=O)C=CC1=O)C[C@@H]3O[C@H]1C[C@H](N2CCO[C@H](OC)C2)[C@H](O)[C@H](C)O1 [Compound 34, (2S,4S)—N-(2-(3-(2,5-dioxo-2,5-dihydro-1H-pyrrol-1-yl)propanamido)ethyl)-2,5,12-trihydroxy-4-(((2R,4S,5S,6S)-5-hydroxy-4-((S)-2-methoxymorpholino)-6-methyltetrahydro-2H-pyran-2-yl)oxy)-7-methoxy-6,11-dioxo-1,2,3,4,6,11-hexahydrotetracene-2-carboxamide]
[1]
  IC50 (ng/mL) BxPC3, PancCa: D (IC50≥1000 ng/mL)
[2]
  IC50 (ng/mL) 786-O, MDR + RCC: D (IC50≥1000 ng/mL)
[3]; [12]
  IC50 (ng/mL) L540cy, HL: D (IC50≥1000 ng/mL)
[4]; [13]
  activity of cOKT9 conjugates across the panel of cancer cell lines: inactive

## COc1cccc2c1C(=O)c1c(O)c3c(c(O)c1C2=O)C[C@@](O)(C(=O)NCCNC(=O)CNC(=O)[C@H](C)NC(=O)[C@@H](NC(=O)CCN1C(=O)C=CC1=O)C(C)C)C[C@@H]3O[C@H]1C[C@H]2[C@H](O[C@@H]3[C@@H](OC)OCCN32)[C@H](C)O1 [Compound 48, (2S,4S)—N-((8S,11S)-15-(2,5-dioxo-2,5-dihydro-1H-pyrrol-1-yl)-11-isopropyl-8-methyl-4,7,10,13-tetraoxo-3,6,9,12-tetraazapentadecyl)-2,5,12-trihydroxy-7-methoxy-4-(((1S,3R,4aS,9S,9aR,10aS)-9-methoxy-1-methyloctahydro-1H-pyrano[4′,3′:4,5]oxazolo[2,3-c][1,4]oxazin-3-yl)oxy)-6,11-dioxo-1,2,3,4,6,11-hexahydrotetracene-2-carboxamide]
[1]
  IC50 (ng/mL) BxPC3, PancCa: A (IC50<10 ng/mL)
[8]
  IC50 (ng/mL) DEL, ALCL: A (IC50<1 ng/mL)
[2]
  IC50 (ng/mL) 786-O, MDR + RCC: B (10 ng/mL≤IC50<100 ng/mL)
[3]; [14]
  IC50 (ng/mL) L540cy, HL: A (IC50<1 ng/mL)
[3]; [12]
  IC50 (ng/mL) L540cy, HL: A (IC50<10 ng/mL)
[4]
  IC50s of cOKT9 conjugates: 1 to 150 ng/mL
